{"source": "patent US20060241174A1", "about": "“Vitamin E tocotrienols inhibition of intracellularly obligate pathogen Chlamydia and methods of use” (priority 2005, published 2006)", "key": {"C. trachomatis serovar K": {"tested_on": "C. trachomatis serovar K", "test": "Infection of delta tocotrienol-pretreated cell lines (J774A.1, MCF-7, TMX2-28, Hep-2, JY), immunofluorescence with microscopy or flow cytometry", "format": "cell-based, Chlamydia trachomatis", "details": "10-30 μmol/L for 6 hours prior to infection", "method": "Delta tocotrienol is a vitamin E compound also available as dietary supplement. […] Since Chlamydia species enter cells via cholesterol-rich lipid raft domains involved in cholesterol trafficking, tocotrienols in general and hypocholesterolemic delta tocotrienol in particular will reduce infection by Chlamydia. Mouse macrophages (J774A.1), human mammary tumor cells (MCF-7, TMX2-28), human epithelial cells (Hep-2), and human B-lymphocytes (JY) were incubated with delta tocotrienol at concentrations of 10-30 μmol/L for 6 hours prior to infection by C. trachomatis serovar K, a subspecies of Chlamydia that is the primary cause of bacteria-initiated STD. Infections were detected by immunofluorescence staining followed by either microscopy or quantitative flow cytometric analysis. Infection levels in cells pretreated with delta-tocotrienol were decreased by >50%, with concomitant aberrant pathogen development observed with confocal microscopy. The number of large and small inclusions in the delta tocotrienol-versus-control cells was decreased by 3- and 2-fold, respectively. […] The impact of dietary delta tocotrienol on Chlamydia infection in hyperlipidemic patients is being examined in a clinical study. Cholesterol-suppressive delta tocotrienol may have the potential to reduce Chlamydia infection in humans."}, "[1]": {"target": "T1, 3-hydroxy-3-methylglutaryl coenzyme A (HMG-CoA) reductase (Homo sapiens, UniProt P04035)", "T1 sequence (P04035 1-888)": "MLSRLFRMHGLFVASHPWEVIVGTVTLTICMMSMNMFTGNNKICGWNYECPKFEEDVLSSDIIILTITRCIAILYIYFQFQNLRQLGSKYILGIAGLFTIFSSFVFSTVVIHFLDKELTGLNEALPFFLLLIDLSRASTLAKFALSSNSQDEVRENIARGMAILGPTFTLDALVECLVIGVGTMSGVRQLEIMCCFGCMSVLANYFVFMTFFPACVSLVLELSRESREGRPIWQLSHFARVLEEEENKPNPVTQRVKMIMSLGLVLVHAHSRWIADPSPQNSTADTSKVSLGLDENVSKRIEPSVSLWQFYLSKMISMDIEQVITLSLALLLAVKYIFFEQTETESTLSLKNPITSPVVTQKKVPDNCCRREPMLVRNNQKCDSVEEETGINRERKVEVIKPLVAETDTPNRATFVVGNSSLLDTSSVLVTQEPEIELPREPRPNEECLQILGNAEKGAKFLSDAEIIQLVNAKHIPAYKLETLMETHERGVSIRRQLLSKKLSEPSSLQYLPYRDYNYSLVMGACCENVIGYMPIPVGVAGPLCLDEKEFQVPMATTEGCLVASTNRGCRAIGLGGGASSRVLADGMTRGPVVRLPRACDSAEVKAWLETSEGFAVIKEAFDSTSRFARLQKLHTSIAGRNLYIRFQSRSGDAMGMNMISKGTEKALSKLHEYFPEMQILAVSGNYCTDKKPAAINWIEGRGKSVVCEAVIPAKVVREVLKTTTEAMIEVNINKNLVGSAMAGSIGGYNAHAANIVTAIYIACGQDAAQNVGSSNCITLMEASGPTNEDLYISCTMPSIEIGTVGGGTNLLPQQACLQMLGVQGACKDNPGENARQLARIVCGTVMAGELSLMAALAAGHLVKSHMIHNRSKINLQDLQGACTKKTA", "details": "delta>gamma>beta>alpha tocotrienol (Tan, 2005); cited from earlier work"}, "tumors": {"tested_on": "tumors", "details": "background statement, no source given; cited from earlier work"}, "Chlamydia": {"tested_on": "Chlamydia", "test": "Chlamydia-infected human mammary tumor cells (TMX2-28) treated with delta tocotrienol", "format": "cell-based", "method": "FIG. 7 illustrates Chlamydia-infected human mammary tumor cells treated with delta tocotrienol (630× magnification). Human mammary tumor cells (TMX2-28) were infected with Chlamydia for 72 hours and treated with a 15 μmol/L concentration of delta tocotrienol (FIG. 7A). Controls were left untreated (FIG. 7B)."}, "LDL": {"tested_on": "LDL", "test": "LDL levels in hyperlipidemic patients before and after delta-tocotrienol supplementation", "format": "in vivo, human", "method": "In a clinical study, buffy coats from blood samples drawn both before and after delta-tocotrienol supplementation were immunostained for detection of Chlamydia-infected cells. The samples were tested for LDL levels both before and after delta-tocotrienol supplementation."}}, "data": [{"substance": "delta tocotrienol", "values": [{"measurement": "decrease in number of large inclusions versus control cells", "setting": "C. trachomatis serovar K", "value": 3, "unit": "fold"}, {"measurement": "decrease in number of small inclusions versus control cells", "setting": "C. trachomatis serovar K", "value": 2, "unit": "fold"}, {"measurement": "decrease of infection levels in pretreated cells", "setting": "C. trachomatis serovar K", "value": "> 50", "unit": "%"}, {"measurement": "potency of cholesterol inhibition among tocotrienol isomers", "setting": "[1]", "value": "most potent isomer"}, {"measurement": "reduction of tumors", "setting": "tumors", "value": "≤ 70", "unit": "%"}, {"measurement": "apoptosis of Chlamydia-infected, tocotrienol-treated cancer cells", "setting": "Chlamydia", "value": "did not appear to become apoptotic"}, {"measurement": "inclusion size in tocotrienol treated mammary tumor cells", "setting": "Chlamydia; 15 μmol/L, infected 72 hours, untreated >20 μm", "value": "10-15 μm"}, {"measurement": "% Decrease in LDL", "setting": "LDL; Patient 1 (Chlamydia negative before supplementation)", "value": 20, "unit": "%"}, {"measurement": "% Decrease in LDL", "setting": "LDL; Patient 2 (Chlamydia positive before supplementation)", "value": 7, "unit": "%"}, {"measurement": "% Decrease in LDL", "setting": "LDL; Patient 3 (Chlamydia strong positive before supplementation)", "value": 25, "unit": "%"}]}]}
